# Measured values taken from paper PMC4102551, “Screening and Characterisation of Antimicrobial Properties of Semisynthetic Betulin Derivatives” (PLoS ONE, 2014).
# Several values for one entry are separate records, joined by “and”; a condition that tells them apart may be missing. Equal entries are not always repeated. Where two headings read alike, the source gives them in different places.
# Key:
# S. aureus ATCC 25923 = test: Broth microdilution assay, S. aureus; format: cell-based, Staphylococcus aureus; conditions: for inhibition at 50 µM: Staphylococcus aureus, ATCC25923, 24 h
# Protocol: (§1) Clinically used antimicrobial agents were selected based on international guidelines for antimicrobial testing and were utilised as reference compounds in the antimicrobial assays. The compounds were purchased from Sigma, Fluka and ICN Biomedicals. Stock solutions of the reference compounds were prepared either in double distilled sterile MilliQ water or in DMSO. Water solutions were sterilised through a 0.22 µm filter (VWR International). […] During the primary screening, these reference compounds were used as positive controls at the determined MIC on every plate.
# (§2) Gram-negative strains Escherichia coli (ATCC 25922), Enterobacter aerogenes (ATCC 13048) and Pseudomonas aeruginosa (ATCC 27853), Gram-positive strains Staphylococcus aureus (ATCC 25923) and Enterococcus faecalis (ATCC 29212), and fungal strain Candida albicans (ATCC 90028) were obtained from Microbiologics Inc., and used for the antimicrobial screening. Strains were selected according to the guidelines set for clinical laboratories by Clinical and Laboratory Standards Institute [CLSI, formerly National Committee on Clinical Laboratory Standards [22]] and the European Committee on Antimicrobial Susceptibility Testing (EUCAST). Bacterial strains were grown on Mueller Hinton II Agar (MHA) (BBL, BD) and Mueller Hinton II broth (MHB) (BBL, BD), whereas Candida was initiated on Sabouraud Dextrose Agar (SDA) (Difco, BD) plates. Media were prepared into MilliQ water according to manufacturer’s instruction and autoclaved at 121°C for 15 min. Bacteria were plated on MHA plates and incubated at 37°C for 16–18 h. Bacterial suspension for the assays was prepared by subculturing the bacteria into MHB and by incubating at 37°C for 16–20 h at 110 rpm prior to the assay. Candida strain was grown on SDA plates at 27°C for 16–18 h and suspended into sterile 0.9% saline for the assay.
# (§3) Antimicrobial screening assays were performed by broth microdilution method following the guidelines of CLSI and EUCAST. Bacterial suspensions were prepared as mentioned earlier and diluted with MHB to obtain a final inoculum of 5×10^5 colony-forming units (cfu)/mL in the assay for all the bacteria (based on OD620 values previously calibrated against plate counts). Candida suspension was prepared into sterile 0.9% saline solution as stated earlier. […] Assays were carried out in clear 96-well microtitre plates and initiated by dispensing an equal volume of microbial suspension and sample solution diluted into the assay medium into the wells. The plates were incubated for 24 h at 37°C (for Candida the incubation was at 35°C for 48 h) with agitation. Absorbance was measured at 620 nm with Victor plate reader (Wallac 1420, Perkin Elmer) at 0, 4 and 24 h with the bacteria, and at 0, 24 and 48 h with Candida. The antimicrobial activity of the samples was calculated from the absorbance values by comparing to the controls, and expressed as a percentage inhibition of growth. All the betulin derivatives were first assayed at the single concentration of 50 µM (two separate experiments, each with three replicates). […] The MIC90 value was expressed as the lowest concentration of compound that inhibited the microbial growth by >90%. The MIC90 results are means of three replicates from two separate experiments.
# in vitro = format: cell-based, human; conditions: human
# Protocol: (§4) Huh-7 cells (derived from human hepatocellular carcinoma) were obtained as a gift from Prof. Ralf Bartenschlager (University of Heidelberg, Germany) and used for assessing the cytotoxicity against mammalian cells. HL cells (a heteroploid cell line used for propagating respiratory viruses) were used as a host cell line in the host-pathogen co-culture assay. […] Both cell lines were cultured at 37°C, 5% CO2 and 95% humidity.
# (§5) The effect of the betulin derivatives on metabolic activity of Huh-7 cells was evaluated by measuring the intracellular ATP content of the cells after 24 h exposure to the compounds. In brief, cells were seeded at 20000 cells/well on white-walled microplates (PerkinElmer) and incubated at 37°C, 5% CO2 and 95% humidity. After culturing the cells overnight, the medium was replaced with the assay media (5% FBS) containing the sample and the cells were incubated for 24 h. Polymyxin B sulphate (15000 IU/mL) was used as a positive control. Following the incubation period, Promega’s CellTiter-Glo Cell Viability Assay was used to determine the intracellular ATP levels according to the manufacturer’s instructions. Cells were washed with 100 µL 6.7 mM PBS, pH 7.4 and 50 µL of fresh assay media and 50 µL of the CellTiter-Glo reagent were added into the wells. After 2 min shaking, followed by 10 min incubation at RT, luminometric signal was measured using Varioskan Flash plate reader (Thermo Fisher Scientific).
# E. coli ATCC 25922 = test: Broth microdilution assay, E. coli; format: cell-based, Escherichia coli
# Protocol: as §1, §2, §3
# C. albicans ATCC 90028 = test: Broth microdilution assay, C. albicans; format: cell-based, Candida albicans
# Protocol: as §1, §2, §3
# E. aerogenes ATCC 13048 = test: Broth microdilution assay, E. aerogenes; format: cell-based, Enterobacter aerogenes; conditions: for inhibition at 50 µM: Klebsiella aerogenes, ATCC13048, 24 h, read-out: Inhibitory effect (%) E. aerogenes ATCC 13048
# Protocol: as §1, §2, §3
# E. faecalis ATCC 29212 = test: Broth microdilution assay, E. faecalis; format: cell-based, Enterococcus faecalis; conditions: for inhibition at 50 µM: Enterococcus faecalis, ATCC29212, 24 h
# Protocol: as §1, §2, §3
# P. aeruginosa ATCC 27853 = test: Broth microdilution assay, P. aeruginosa; format: cell-based, Pseudomonas aeruginosa
# Protocol: as §1, §2, §3
# Huh-7 cells = test: in vitro; format: cell-based, human; conditions: for Cytotoxicity (%) Huh-7 cells: 50 µM
# Protocol: as §4, §5
# [1] = 50 µM, 24 h, inhibition of growth, mean ± SD, read-out: Inhibitory effect (%) S. aureus ATCC 25923
# [2] = Escherichia coli, ATCC25922, 24 h; read-out: Inhibitory effect (%) E. coli ATCC 25922
# [3] = Candida albicans, ATCC90028, 48 h; read-out: Inhibitory effect (%) C. albicans ATCC 90028
# [4] = 50 µM, 24 h, inhibition of growth, mean ± SD
# [5] = 50 µM, 24 h, inhibition of growth, mean ± SD, read-out: Inhibitory effect (%) E. faecalis ATCC 29212
# [6] = Pseudomonas aeruginosa, ATCC27853, 24 h; read-out: Inhibitory effect (%) P. aeruginosa ATCC 27853
# [7] = 50 µM, 24 h exposure, ATP content, 5% FBS, read-out: Cytotoxicity (%) Huh-7 cells
# [8] = 24 h exposure, ATP content, 5% FBS
# [9] = 50 µM, 48 h at 35°C, inhibition of growth, mean ± SD
Structure (SMILES),inhibition at 50 µM (S. aureus ATCC 25923; [1]) [%],"cytotoxicity at 24 h, 50 µM (in vitro; Cytotoxicity (%) Huh-7 cells) [%]",inhibition at 50 µM (E. coli ATCC 25922; [2]) [%],inhibition at 50 µM (C. albicans ATCC 90028; [3]) [%],inhibition at 50 µM (E. aerogenes ATCC 13048; [4]) [%],Inhibitory effect (%) E. faecalis ATCC 29212 (E. faecalis ATCC 29212; [4]),inhibition at 50 µM (E. faecalis ATCC 29212; [5]) [%],inhibition at 50 µM (P. aeruginosa ATCC 27853; [6]) [%],Inhibitory effect (%) S. aureus ATCC 25923 (S. aureus ATCC 25923; [4]) [%],Cytotoxicity (%) Huh-7 cells (Huh-7 cells; [8]) [%],Inhibitory effect (%) E. coli ATCC 25922 (E. coli ATCC 25922; [4]) [%],Inhibitory effect (%) C. albicans ATCC 90028 (C. albicans ATCC 90028; [9]) [%],Inhibitory effect (%) E. aerogenes ATCC 13048 (E. aerogenes ATCC 13048; [4]) [%],Inhibitory effect (%) P. aeruginosa ATCC 27853 (P. aeruginosa ATCC 27853; [4]) [%],further results
"C=C(C)[C@@H]1CC[C@]2(COC(=O)COc3cc(C(C)C)ccc3C)CC[C@]3(C)[C@H](CC[C@@H]4[C@@]5(C)CC[C@H](O)C(C)(C)[C@@H]5CC[C@]43C)[C@@H]12 [Compound 4, betulinyl 28-carboxymethoxycarvacrolate]",-17.2,-4.6,-1.2,31.4 ± 9.1,9.9 ± 3.3,72% and 72.3±4.0%,> 70,3 ± 3,–,–,–,–,–,–,–
"C=C(C)[C@@H]1CC[C@]2(C=O)CC[C@]3(C)C(CCC4[C@@]5(C)CC[C@H](O)C(C)(C)C5CC[C@]43C)C12 (some centres unmarked) [Compound 18, betulinic aldehyde]",-35.5,61,2.7 ± 2.4,6.9 ± 8.1,13.5 ± 2.6,–,39.6 ± 8,3.9 ± 0.6,–,–,–,–,–,–,"IC50 at 24 h (in vitro): 47 µM; Cytotoxicity (%) Huh-7 cells (Huh-7 cells; human, 24 h): 61.3±9.5%"
"CC(C)[C@@H]1CC[C@]2(C(=O)O)CC[C@]3(C)[C@H](CC[C@@H]4[C@@]5(C)CCC(=O)C(C)(C)[C@@H]5CC[C@]43C)[C@@H]12 [Compound 24, dihydrobetulonic acid]",15.1 ± 3.7,13 ± 10.3,6.2 ± 4.5,54.9 ± 8.3,16.8 ± 5.4,56.6±2.0%,57,4.9 ± 0.5,–,–,–,–,–,–,–
"C=C(C)[C@@H]1CC[C@]2(C(=O)Oc3ccc(C=O)cc3OC)CC[C@]3(C)[C@H](CC[C@@H]4[C@@]5(C)CCC(=O)C(C)(C)C5CC[C@]43C)[C@@H]12 (some centres unmarked) [Compound 26, vanillinyl betulonate]",–,-10.1 ± 2.2,–,–,–,58.7±0.1%,–,–,–,–,–,–,–,–,"inhibition at 50 µM (S. aureus ATCC 25923; read-out: Inhibitory effect (%) S. aureus ATCC 25923, 50 µM, 24 h, inhibition of growth, mean ± SD): 7.3 ± 5.8%; inhibition at 50 µM (E. coli ATCC 25922; Escherichia coli, ATCC25922, 24 h, read-out: Inhibitory effect (%) E. coli ATCC 25922): 4.1 ± 0.4%; inhibition at 50 µM (C. albicans ATCC 90028; Candida albicans, ATCC90028, 48 h, read-out: Inhibitory effect (%) C. albicans ATCC 90028): -65.9 ± 15%; inhibition at 50 µM (E. aerogenes ATCC 13048): 7.5 ± 0.6%; inhibition at 50 µM (E. faecalis ATCC 29212; read-out: Inhibitory effect (%) E. faecalis ATCC 29212, 50 µM, 24 h, inhibition of growth, mean ± SD): 59%; inhibition at 50 µM (P. aeruginosa ATCC 27853; Pseudomonas aeruginosa, ATCC27853, 24 h, read-out: Inhibitory effect (%) P. aeruginosa ATCC 27853): 6.6 ± 1%"
"C=C(C)C1CCC2(C=NO)CCC3(C)C(CCC4C5(C)CCC(O)C(C)(C)C5CCC43C)C12 (centres unmarked) [Compound 31, betulin-28-oxime]",6.4 ± 3.4,61,1.9 ± 4,-73.5,14.6 ± 0.9,–,41 ± 3.4,5.4 ± 2.2,–,–,–,–,–,–,"IC50 at 24 h (in vitro): 25 µM; inhibition at 100 µM (Huh-7 cells; Homo sapiens, Huh-7, 100 µM, 24 h, read-out: Inhibition in ATP assay, Huh-7 cells): 60%; Cytotoxicity (%) Huh-7 cells (Huh-7 cells; human, 24 h): 61.5±2.0%"
CC(=O)OCC12CCC3(C(C)C)C1=C1C(CC4C5(C)CCC(OC(C)=O)C(C)(C)C5CCC4(C)C1(C)CC2)n1c(=O)n(-c2ccc4c(c2)OCO4)c(=O)n13 (centres unmarked) [Compound 35],5.9 ± 1.2,–,3.4 ± 3.1,4.4 ± 12.9,14.2 ± 1.6,70.0±0.9%,> 70,5.5 ± 1,–,–,–,–,–,–,"cytotoxicity at 24 h, 50 µM (in vitro; [7]): -0.1%"
CC(=O)OCC12CCC3(C(C)C)C1=C1C(CC4C5(C)CCC(OC(C)=O)C(C)(C)C5CCC4(C)C1(C)CC2)n1c(=O)n(-c2cccc([N+](=O)[O-])c2)c(=O)n13 (centres unmarked) [Compound 38],6.7 ± 1.5,–,8.8 ± 2.6,-13.8,19.3 ± 3,74% and 73.9±1.4%,> 70,7.6 ± 1.4,–,–,–,–,–,–,"cytotoxicity at 24 h, 50 µM (in vitro; [7]): 8.3 ± 3.9%"
CC(C)C12CCC3(COC(=O)c4ccccc4)CCC4(C)C(=C31)C(CC1C3(C)CCC(OC(=O)c5ccccc5)C(C)(C)C3CCC14C)n1c(=O)n(C)c(=O)n12 (centres unmarked) [Compound 49],–,–,–,–,–,64.6±0.8%,–,–,15.1±1.0,-10.6±4.1,0.0±6.0,-48.0±24.5,14.2±1.5,5.3±1.9,–
CC(C)C12CCC3(COC(=O)c4ccccc4)CCC4(C)C(=C31)C(CC1C3(C)CCC(OC(=O)c5ccccc5)C(C)(C)C3CCC14C)n1c(=O)n(-c3ccccc3)c(=O)n12 (centres unmarked) [Compound 50],–,–,–,–,–,38.8±5.8%,–,–,10.1±1.0,-6.2±3.7,-2.8±5.2,-35.2±31.4,9.6±4.2,3.2±0.3,–
CC(C)C12CCC3(COC(=O)C4CCCCC4)CCC4(C)C(=C31)C(CC1C3(C)CCC(OC(=O)C5CCCCC5)C(C)(C)C3CCC14C)n1c(=O)n(C(C)(C)C)c(=O)n12 (centres unmarked) [Compound 51],–,–,–,–,–,62.3±0.3%,–,–,7.5±3.8,-10.0±2.6,-3.2±1.0,-96.4±22.3,10.8±2.5,5.9±0.3,–
